Consider five compounds from paper PMC4119598 (Journal of natural products, 2013).

In data set [1] the test system is fabp10a:DsRed2 zebrafish larvae. Nature of the data set: In vivo hepatotoxicity in fabp10a:DsRed2 zebrafish larvae. More on the design: species or system zebrafish (Brachydanio rerio). The note with it: for liver phenotype (Figure 3): 6 dpf after 3 days of exposure at MTC (60.2 μM of 1, 15.5 μM of 2, 0.3 μM of 4).
The subject of another data set is P. berghei LS parasites. As to the kind of experiment: Immunofluorescence analysis. It counts as cell-based, Plasmodium berghei. To be noted: 10 μM, 48 h post-infection.
A further data set concerns the target MtFabI (Mycobacterium tuberculosis, UniProt P9WGR1). As to the kind of experiment: FabI enzyme inhibition assay MtFabI. The class given is biochemical, M. tuberculosis.
Another data set relates to BS of Plasmodium. To be noted: read-out: BS IC50 (reported); cited from earlier work.

Chain of MtFabI (P9WGR1 whole entry, looked up): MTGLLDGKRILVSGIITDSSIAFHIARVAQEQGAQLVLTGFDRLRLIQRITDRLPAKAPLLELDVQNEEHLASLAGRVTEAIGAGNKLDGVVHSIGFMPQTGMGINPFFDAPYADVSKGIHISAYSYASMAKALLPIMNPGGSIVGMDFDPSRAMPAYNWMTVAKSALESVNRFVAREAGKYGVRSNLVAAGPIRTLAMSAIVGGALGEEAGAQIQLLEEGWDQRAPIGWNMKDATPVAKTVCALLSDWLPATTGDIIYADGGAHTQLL

Usually IC50 stands for the concentration that inhibits the measured activity by half. In the case of `COC(=O)/C(=C1/OC(=O)C(c2ccccc2)=C1O)c1ccccc1` [compound 2, vulpic acid], the “liver phenotype (Figure 3)” value in data set [1] is recorded as “enlarged liver”. Moreover, the “effect on size of LS parasites (IFA)” value with P. berghei LS parasites is reported as “decrease in the size of parasites”. The IC50 on MtFabI is above 200 µM.

Turning to `COc1cc(NC(C)CCCN)c2ncccc2c1` (stereo not drawn) [primaquine], in the data set with BS of Plasmodium, the IC50 was 1.4 to 3.3 µM.

Consider `COc1cc(C)c(C(=O)Oc2cc(C)c(C(=O)O)c(O)c2)c(O)c1` [compound 1, evernic acid], for which, in data set [1], the “liver phenotype (Figure 3)” value is reported as “reduced liver size”. In addition, the “effect on size of LS parasites (IFA)” value in the data set with P. berghei LS parasites is given as “no effect”. Besides, the IC50 against MtFabI was above 200 µM.

For the compound `CC(=O)C1=C(O)C=C2Oc3c(C(C)=O)c(O)c(C)c(O)c3[C@@]2(C)C1=O` [compound 4, (+)-usnic acid], in data set [1], the “liver phenotype (Figure 3)” value is “liver with normal shape and size”. In addition, the “hepatotoxicity in zebrafish larvae” value in data set [1] (highest concentrations tested, up to and including MTC) is “no hepatotoxicity was observed”. Also, the “effect on size of LS parasites (IFA)” value with P. berghei LS parasites was “decrease in the size of parasites”.

For the compound `COc1cc(C(=O)O)c2c(c1C)OC(=O)c1c(C)cc(O)c(C=O)c1O2` [compound 3, psoromic acid], in the data set on P. berghei LS parasites, the “effect on size of LS parasites (IFA)” value is recorded as “no effect”. The compound further yielded an IC50 at MtFabI above 200 µM.
